Values after ≈ are worked out from the molar mass of the structure shown. Where two headings read alike, the source gives them in different places.
Legend:
[1] = system: M. kansasii DSM 44162 (MK DSM); assay: in vitro antimycobacterial MIC, broth dilution micromethod in Middlebrook 7H9; format: cell-based; details: Mycobacterium kansasii, DSM 44162 / DSM 7, 168 h; 7-day cultivation, 37 °C; read-out: MIC MK DSM 7-d
[2] = system: M. smegmatis ATCC 700084 (MS); assay: as above; format: cell-based, Mycobacterium smegmatis; details: Mycolicibacterium smegmatis, ATCC700084, 72 h; 3-day cultivation, 37 °C; read-out: MIC MS 3-d
[3] = system: M. marinum CAMP 5644 (MM); assay: as above; format: cell-based, Mycobacterium marinum; details: Mycobacterium marinum, 504 h; 21-day cultivation, 28 °C; read-out: MIC MM 21-d
[4] = system: Mycobacterium tuberculosis CNCTC My 331/88 (identical with H37Rv and ATCC 2794; MTv H37Rv); assay: in vitro antimycobacterial MIC, dilution micromethod in Šula's semisynthetic medium; format: cell-based; details: Mycobacterium tuberculosis
[5] = system: M. avium CNCTC My 330/80 (identical with ATCC 25291; MA 330/80); assay: as above; format: cell-based, Mycobacterium avium; details: Mycobacterium avium
[6] = system: M. tuberculosis H37Ra ATCC 25177 (MTa H37Ra); assay: in vitro antimycobacterial MIC, 96-well Middlebrook broth, alamarBlue; format: cell-based, Mycobacterium tuberculosis; details: Mycobacterium tuberculosis, 168 h, 7-day cultivation; read-out: MIC MTa H37Ra 7-d
Procedure: In vitro susceptibitity of given mycobacteria to reference drugs isoniazid (INH), ethambutol (EMB), ofloxacin (OFLX) or ciprofloxacin (CPX) was tested as well (Table 6 and Table 7).
A value of a minimum inhibitory concentration (MIC) was the lowest concentration of a tested compound, (i) which inhibited growth of MTv H37Rv, MK 235/80, MK 6509/96 and MA 330/80, respectively; (ii) at which no visible growth of MTa H37Ra, MS, MK DSM as well as MM was observed.
The molecules 1a–p were also in vitro screened against an avirulent M. tuberculosis H37Ra ATCC 25177 (MTa H37Ra), M. kansasii DSM 44162 (MK DSM), M. smegmatis ATCC 700084 (MS) and M. marinum CAMP 5644 (MM), respectively, in the Department of Infectious Diseases and Microbiology (Faculty of Veterinary Medicine, University of Veterinary and Pharmaceutical Sciences in Brno, Czech Republic).
Determination of a minimum inhibitory concentration (MIC) against MTa H37Ra. The mycobacterium was grown on Middlebrook broth (MB; MiddleBrook Pharmaceuticals, Inc., Westlake, TX, USA), supplemented with Oleic-Albumin-Dextrose-Catalase (OADC) supplement (Difco, Lawrence, KS, USA) and salicylate-derived mycobactin J (2 μg/mL; Allied Monitor Inc., Fayette, MO, USA), an iron-binding siderophore.
At log phase growth, a culture sample (10 mL) was centrifuged at 15,000 rpm/20 min using a bench top centrifuge MPW-65R (MPW Med Instruments, Warsaw, Poland). Following removal of the supernatant, a pellet was washed in fresh liquid Middlebrook 7H9GC broth (MiddleBrook Pharmaceuticals, Inc.) and re-suspended in a fresh OADC-supplemented MB (10 mL).
Turbidity was adjusted to match the McFarland standard No. 1 [87] containing approximately 3 × 10^8 Colony Forming Units (CFU) with MB broth. Further 1:20 dilution of the culture was performed in MB broth.
Susceptibility of MTa H37Ra was investigated in a 96-well plate format. In the experiments, sterile deionized water (300 µL) was added to all outer-perimeter wells of the plates to minimize evaporation of the medium in test wells during incubation. Each evaluated compound (100 µL) was incubated with MTa H37Ra (100 µL). Dilutions of each compound were prepared in triplicate and final concentrations varied from 1000 μg/mL to 8 μg/mL. All tested molecules were dissolved in DMSO (Sigma-Aldrich, Irvine, UK), and subsequent dilutions were made in supplemented MB broth. The plates were sealed with parafilm and incubated at 37 °C for 7 days.
Following incubation, 10% addition a water-soluble dye, the alamarBlue reagent (AbD Serotec, Kidlington, UK) was mixed into each well. This resaurin-based reagent served as an oxidation-reduction indicator of metabolic function and cellular health in cell viability bioassays.
Absorbance readings at 570 nm and 600 nm were taken, initially for background subtraction and after 24h re-incubation. The subtraction is necessary for strongly colored compounds, where the color may interfere with the interpretation of any color change. For non-interfering compounds, a blue color in a well was interpreted as absence of growth and pink color was scored as growth.
The minimum inhibitory concentration (MIC) was defined as the lowest concentration of a compound, at which no visible bacterial growth was observed. In other words, the MIC was the lowest concentration that prevented visual color change from blue to pink.

[7] = system: M. kansasii CNCTC My 235/80 (identical with ATCC 12478; MK 235/80); assay: in vitro antimycobacterial MIC, dilution micromethod in Šula's semisynthetic medium; format: cell-based, Mycobacterium kansasii; details: Mycobacterium kansasii
rabbit cornea = system: rabbit cornea; set-up: method as in PMID 8402965; details: 0.01 M cocaine as standard; cited from earlier work
guinea pig = system: guinea pig; set-up: method as in PMID 8402965; details: intradermal, 0.02 M procaine as standard; cited from earlier work
white mice = details: subcutaneous application; cited from earlier work
[8] = 336 h, 14-day cultivation, read-out: MIC MTv H37Rv 14-d
[9] = 504 h, 21-day cultivation, read-out: MIC MTv H37Rv 21-d
[10] = ATCC25291, 336 h, 14-day cultivation, read-out: MIC MA 330/80 14-d
[11] = ATCC25291, 504 h, 21-day cultivation, read-out: MIC MA 330/80 21-d
[12] = ATCC12478, 168 h, 7-day cultivation, read-out: MIC MK 235/80 7-d
[13] = ATCC12478, 336 h, 14-day cultivation, read-out: MIC MK 235/80 14-d
[14] = ATCC12478, 504 h, 21-day cultivation, read-out: MIC MK 235/80 21-d

Structure (SMILES) | MIC [2] [µM] | MIC [3] [µM] | MIC [4, 8] [µM] | MIC [4, 9] [µM] | MIC [5, 10] [µM] | MIC [5, 11] [µM] | MIC [7, 12] [µM] | MIC [7, 13] [µM] | MIC [7, 14] [µM] | Us, index of relative surface local anesthetic efficiency (rabbit cornea) | Ui, index of relative infiltration local anesthetic efficiency (guinea pig) | LD50 (white mice) [mg/kg] | other results
O=C(O)c1cn(C2CC2)c2cc(N3CCNCC3)c(F)cc2c1=O [CPX, ciprofloxacin, reference compound] | 0.4 (≈ 0.133 µg/mL) | 0.8 (≈ 0.265 µg/mL) | – | – | – | – | – | – | – | – | – | – | MIC [1]: 3 µM (≈ 0.994 µg/mL)
CC[C@@H](CO)NCCN[C@@H](CC)CO [EMB, ethambutol, reference compound] | – | – | 1 (≈ 0.204 µg/mL) | 2 (≈ 0.409 µg/mL) | 16 (≈ 3.27 µg/mL) | 16 (≈ 3.27 µg/mL) | – | – | – | – | – | – | MIC ([5]; ATCC25291, cultivation time not given, read-out: MIC MA 330/80): 16 µM (≈ 3.27 µg/mL)
NNC(=O)c1ccncc1 [INH, isoniazid, reference compound] | 117 (≈ 16 µg/mL) | 467 (≈ 64 µg/mL) | 0.5 (≈ 0.0686 µg/mL) | 1 (≈ 0.137 µg/mL) | > 250 | > 250 | > 250 | > 250 | > 250 | – | – | – | MIC [6]: 36.5 µM (≈ 5.01 µg/mL)
CC1COc2c(N3CCN(C)CC3)c(F)cc3c(=O)c(C(=O)O)cn1c23 (stereo not shown) [OFLX, ofloxacin, reference compound] | – | – | 1 (≈ 0.361 µg/mL) | 2 (≈ 0.723 µg/mL) | 32 (≈ 11.6 µg/mL) | 62.5 (≈ 22.6 µg/mL) | 0.5 (≈ 0.181 µg/mL) | 1 (≈ 0.361 µg/mL) | 1 (≈ 0.361 µg/mL) | – | – | – | –
COC(=O)[C@H]1[C@@H](OC(=O)c2ccccc2)C[C@@H]2CC[C@H]1N2C [cocaine] | – | – | – | – | – | – | – | – | – | 1.0 | 3.6 | 125 | –
CCN(CC)CCOC(=O)c1ccc(N)cc1 [procaine] | – | – | – | – | – | – | – | – | – | 0.1 | 1.0 | 600 | –

Reference: publication PMC6222509, “Dibasic Derivatives of Phenylcarbamic Acid against Mycobacterial Strains: Old Drugs and New Tricks?” (Molecules : A Journal of Synthetic Chemistry and Natural …, 2018)
